In patent US10005758B2, “Process for the preparation of 3-(3-chloro-1H-pyrazol-1-yl)pyridine” (Dow AgroSciences LLC, priority 2014, dated 2018) one finds mortality data, which are given here for 2 compounds.

Assay [1] has as its system Sweetpotato Whitefly Crawler (Bemisia tabaci) (BEMITA). As to the kind of experiment: Bioassay on Sweetpotato Whitefly Crawler, foliar spray on infested cotton plants. The class given is in vivo. The settings on record: 200 ppm foliar spray on cotton, live nymphs counted after 8-9 days, read-out: BEMITA rating (% Mortality; Abbott corrected % control). An excerpt:
Example B Bioassays on Sweetpotato Whitefly Crawler (Bemisia tabaci) (BEMITA.)
Cotton plants grown in 3-inch pots, with 1 small (3-5 cm) true leaf, were used at test substrate. The plants were placed in a room with whitely adults. Adults were allowed to deposit eggs for 2-3 days. After a 2-3 day egg-laying period, plants were taken from the adult whitefly room. Adults were blown off leaves using a hand-held Devilbliss sprayer (23 psi). Plants with egg infestation (100-300 eggs per plant) were placed in a holding room for 5-6 days at 82° F. and 50% RH for egg hatch and crawler stage to develop. Four cotton plants were used for each treatment. Compounds (2 mg) were dissolved in 1 mL of acetone solvent, forming stock solutions of 2000 ppm. The stock solutions were diluted 10× with 0.025% Tween 20 in water to obtain a test solution at 200 ppm. A hand-held Devilbliss sprayer was used for spraying a solution to both sides of cotton leaf until runoff. Reference plants (solvent check) were sprayed with the diluent only. Treated plants were held in a holding room for 8-9 days at approximately 82° F. and 50% RH prior to grading. Evaluation was conducted by counting the number of live nymphs per plant under a microscope.

Assay [2] has as its system Green Peach Aphid (Myzus persicae) (MYZUPE). The assay is described as follows: Bioassay on Green Peach Aphid (GPA), foliar spray on infested cabbage seedlings. The assay is classed as in vivo. The settings on record: 72 h, 200 ppm foliar spray on cabbage, live aphids counted after three days, read-out: MYZUPE rating (% Mortality; Abbott corrected % control). As for the experimental part: Example A Bioassays on Green Peach Aphid (“GPA”) (Myzus persicae) (MYZUPE.)
Several molecules disclosed herein were tested against GPA using procedures described below.
Cabbage seedling grown in 3-in pots, with 2-3 small (3-5 cm) true leaves, were used as test substrate. The seedlings were infested with […] (wingless adult and nymph stages) one day prior to chemical application. Four pots with individual seedlings were used for each treatment. Test compounds (2 mg) were dissolved in 2 mL of acetone/MeOH (1:1) solvent, forming stock solutions of 1000 ppm test compound. The stock solutions were diluted 5× with 0.025% Tween 20 in water to obtain the solution at 200 ppm test compound. A hand-held aspirator-type sprayer was used for spraying a solution to both sides of the cabbage leaves until runoff. Reference plants (solvent check) were sprayed with the diluent only containing […] acetone/MeOH (1:1) solvent. Treated plants were held in a holding room for three days at approximately 25° C. and ambient relative humidity (RH) prior to grading. Evaluation was conducted by counting the number of live aphids per plant under a microscope. Percent Control was measured by using Abbott's correction formula (W. S. Abbott, “A Method of Computing the Effectiveness of an Insecticide” J. Econ. Entomol 18 (1925), pp. 265-267) as follows. Corrected % Control=100*(X−Y)/X […]

The mortality is the percentage killed. Turning to `CCOC(=O)C1CC(=O)NN1c1cccnc1` (stereo not shown) [Example Compound 10a, Ethyl 5-oxo-2-(pyridin-3-yl)pyrazolidine-3-carboxylate], the mortality at 200 ppm in assay [1] and in assay [2] was 0 to 80% throughout.
As for `CCOC(=O)C1CC(Cl)=NN1c1cccnc1` (stereo not shown) [Example Compound 10b, Ethyl 3-chloro-1-(pyridin-3-yl)-4,5-dihydro-1H-pyrazole-5-carboxylate], the mortality at 200 ppm in assay [1] and in assay [2] was 0 to 80% each time.
